Calls of active or inactive are those of the source.
Experiments:
[1] = inhibitors of firefly luciferase expression or activity, dose response, H4 neuroglioma cells, luminescence (AID 1990); assay type: functional, cell-based
HEK293 [2] = assay: PMA/Ionomycin induced NF-kB luciferase assay in 293- NF-kB-Luc stable cells. [Related pubchem assays: 1299, 1270, 1295, 1375, 1287, 1281, 1293, 1291, 1289, 1280, 465, 1364, 1282, 1372, 1365, 1370, 1367, 1366, 1269, 1373, 1292, 1290, 1302, 1371, 1283, 1271, 1294, 1374, 1368, 1369 ]; assay type: functional, cell-based; settings: Homo sapiens
[3] = molecular target: Luciferin 4-monooxygenase (Photinus pyralis, UniProt P08659); assay: In vitro luciferase assay using purified luciferase. [Related pubchem assays: 1299, 1270, 1295, 1375, 1287, 1281, 1293, 1291, 1289, 1280, 465, 1364, 1282, 1372, 1365, 1370, 1367, 1366, 1266, 1373, 1292, 1290, 1302, 1371, 1283, 1271, 1294, 1374, 1368, 1369 ]
[4] = Luminescence Cell-Based Dose Response HTS to Identify Inhibitors of 5'UTR Stem-Loop Driven Prion Protein mRNA Translation in H4 Neuroglioblastoma Cells. [Related pubchem assays: 1827 (Project Summary), 1813 (Primary HTS)]; assay type: functional
[5] = molecular target: T1, Heat shock factor protein 1 (Mus musculus, UniProt P38532); assay: inhibition of MG132-induced HSE-luciferase signal, confirmation, cell-based, NIH3T3, luminescence, dose retest (AID 2382); assay type: functional;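 further: NIH3T3 fibroblasts with HSF1-driven luciferase reporter stressed by proteasome inhibitor MG132; luminescence from HSF1-driven luciferase expression after 8 hours of MG132 stress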
T1 sequence (P38532 whole entry): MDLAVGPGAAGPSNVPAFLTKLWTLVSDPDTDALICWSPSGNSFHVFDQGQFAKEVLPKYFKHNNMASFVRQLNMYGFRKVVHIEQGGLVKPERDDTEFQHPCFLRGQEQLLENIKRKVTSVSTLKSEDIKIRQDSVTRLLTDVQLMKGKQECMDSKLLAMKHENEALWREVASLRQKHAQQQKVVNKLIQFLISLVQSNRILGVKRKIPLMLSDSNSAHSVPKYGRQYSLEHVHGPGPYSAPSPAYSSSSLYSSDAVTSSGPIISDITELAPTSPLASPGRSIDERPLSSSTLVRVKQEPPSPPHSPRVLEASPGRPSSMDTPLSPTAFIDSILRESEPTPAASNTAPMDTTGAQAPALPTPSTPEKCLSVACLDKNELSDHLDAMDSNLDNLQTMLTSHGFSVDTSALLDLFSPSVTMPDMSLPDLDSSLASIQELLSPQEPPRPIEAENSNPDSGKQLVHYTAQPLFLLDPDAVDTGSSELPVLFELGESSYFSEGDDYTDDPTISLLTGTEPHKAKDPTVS

[6] = Luminescence-based counterscreen assay for KLF5 inhibitors: dose response cell-based high throughput screening assay to identify cytotoxic compounds using the IEC-6 intestinal epithelial cell line. [Related pubchem assays: 1700 (Primary screen.), 1834 (Confirmation screen.), 1858 (Summary AID.), 1905 (Counterscreen.)]; assay type: functional
HEK293 [7] = assay: Cytotoxicity assay in HEK293 cells. [Related pubchem assays (depositor defined):AID1266, AID1269, AID1270, AID1271, AID1280, AID1281, AID1282, AID1283, AID1287, AID1289, AID1290, AID1291, AID1292, AID1293, AID1294, AID1295, AID1299, AID1302, AID1364, AID1365, AID1366, AID1367, AID1369, AID1370, AID1371, AID1372, AID1373, AID1374, AID1375, AID1384 …; assay type: functional, cell-based; settings: Homo sapiens
[8] = cytotoxicity in HEK-293T cells, dose response, cytotoxicity control for TCR NF-kB inhibitor project, luminescence, T-cell screen hits (AID 489026); assay type: functional, cell-based;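 further: cells exposed to compound about 14 hours before the viability readout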
[9] = molecular target: T2, Microphthalmia-associated transcription factor (Homo sapiens, UniProt O75030); assay: TRPM1 promoter luciferase signal decrease, dose response, MITF inhibitor project, cell-based, SK-MEL-5, cherry-picked, set 3 (AID 493073); assay type: functional
T2 sequence (O75030 whole entry): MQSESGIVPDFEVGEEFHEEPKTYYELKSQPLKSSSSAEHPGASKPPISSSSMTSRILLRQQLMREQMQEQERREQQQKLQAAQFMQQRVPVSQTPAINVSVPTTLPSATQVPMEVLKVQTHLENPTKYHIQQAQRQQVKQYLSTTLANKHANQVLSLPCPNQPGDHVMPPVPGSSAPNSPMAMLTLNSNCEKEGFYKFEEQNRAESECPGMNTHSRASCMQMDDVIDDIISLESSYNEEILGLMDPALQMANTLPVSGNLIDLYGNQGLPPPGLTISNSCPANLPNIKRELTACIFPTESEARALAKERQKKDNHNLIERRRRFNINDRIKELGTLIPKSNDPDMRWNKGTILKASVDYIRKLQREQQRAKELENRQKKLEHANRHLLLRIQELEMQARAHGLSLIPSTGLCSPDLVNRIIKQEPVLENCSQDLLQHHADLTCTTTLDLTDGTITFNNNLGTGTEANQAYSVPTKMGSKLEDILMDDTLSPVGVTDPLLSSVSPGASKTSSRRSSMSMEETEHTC

X-box-binding protein 1 = X-box-binding protein 1 (Homo sapiens, UniProt P17861); assay type: functional, Cricetulus griseus;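 further: confirmatory dose-response counter-screen serving a CHOP assay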
[10] = molecular target: Acyl-homoserine lactone acylase PvdQ (Pseudomonas aeruginosa (strain LESB58), UniProt Q9I194); assay: P. aeruginosa PvdQ acylase inhibitors, dose response, biochemical, fluorescence, plate reader and imaging, cherry-picks (AID 493231)
Neutrophil collagenase = Neutrophil collagenase (Homo sapiens, UniProt P22894); assay: MMP13 inhibition and MMP selectivity, late-stage follow-up, selectivity assay for MMP13 inhibitor project, biochemical, probe development, late stage results, panel member MMP-8 [IC50 Assay] (AID 2067)
Collagenase 3 = Collagenase 3 (Homo sapiens, UniProt P45452); assay: MMP13 inhibition and MMP selectivity, late-stage follow-up, selectivity assay for MMP13 inhibitor project, biochemical, probe development, late stage results, panel member MMP-13 [IC50 Assay] (AID 2067)
[11] = A Cell Based Secondary Assay To Explore Cytotoxicity of Compounds that Sensitize Mycobacterium Tuberculosis to Beta-Lactam Antibiotics.; assay type: functional
Estrogen receptor [12] = molecular target: T3, Estrogen receptor (Homo sapiens, UniProt P03372); assay: potentiators of ERα–SRC-1 coactivator binding, dose response, biochemical, TR-FRET, ERα LBD (AID 737)
T3 sequence (P03372 whole entry): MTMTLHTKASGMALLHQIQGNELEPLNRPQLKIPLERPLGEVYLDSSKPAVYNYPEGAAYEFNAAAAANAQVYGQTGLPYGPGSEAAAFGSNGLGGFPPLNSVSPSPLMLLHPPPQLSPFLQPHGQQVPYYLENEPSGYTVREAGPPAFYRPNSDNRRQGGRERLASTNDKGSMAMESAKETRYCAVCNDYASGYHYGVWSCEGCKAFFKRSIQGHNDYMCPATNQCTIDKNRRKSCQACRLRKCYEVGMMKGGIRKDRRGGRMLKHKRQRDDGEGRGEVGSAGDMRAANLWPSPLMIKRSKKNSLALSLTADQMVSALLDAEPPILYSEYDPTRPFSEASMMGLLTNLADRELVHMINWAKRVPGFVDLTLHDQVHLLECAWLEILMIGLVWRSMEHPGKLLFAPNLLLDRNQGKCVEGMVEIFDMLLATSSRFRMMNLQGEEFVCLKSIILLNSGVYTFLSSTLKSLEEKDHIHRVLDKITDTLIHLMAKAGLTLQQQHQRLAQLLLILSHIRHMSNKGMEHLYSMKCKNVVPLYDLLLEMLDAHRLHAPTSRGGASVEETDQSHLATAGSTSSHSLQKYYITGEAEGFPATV

Tumor necrosis factor = Tumor necrosis factor (Homo sapiens, UniProt P01375); assay: TNFa-triggered NF-kB activation inhibitors, SAR follow-up, cell-based, revised (AID 2337); assay type: functional
[13] = molecular target: T4, Nucleotide-binding oligomerization domain-containing protein 1 (Homo sapiens, UniProt Q9Y239); assay: NOD1 signaling inhibitors, SAR follow-up, revised (AID 2333); assay type: functional
T4 sequence (Q9Y239 whole entry): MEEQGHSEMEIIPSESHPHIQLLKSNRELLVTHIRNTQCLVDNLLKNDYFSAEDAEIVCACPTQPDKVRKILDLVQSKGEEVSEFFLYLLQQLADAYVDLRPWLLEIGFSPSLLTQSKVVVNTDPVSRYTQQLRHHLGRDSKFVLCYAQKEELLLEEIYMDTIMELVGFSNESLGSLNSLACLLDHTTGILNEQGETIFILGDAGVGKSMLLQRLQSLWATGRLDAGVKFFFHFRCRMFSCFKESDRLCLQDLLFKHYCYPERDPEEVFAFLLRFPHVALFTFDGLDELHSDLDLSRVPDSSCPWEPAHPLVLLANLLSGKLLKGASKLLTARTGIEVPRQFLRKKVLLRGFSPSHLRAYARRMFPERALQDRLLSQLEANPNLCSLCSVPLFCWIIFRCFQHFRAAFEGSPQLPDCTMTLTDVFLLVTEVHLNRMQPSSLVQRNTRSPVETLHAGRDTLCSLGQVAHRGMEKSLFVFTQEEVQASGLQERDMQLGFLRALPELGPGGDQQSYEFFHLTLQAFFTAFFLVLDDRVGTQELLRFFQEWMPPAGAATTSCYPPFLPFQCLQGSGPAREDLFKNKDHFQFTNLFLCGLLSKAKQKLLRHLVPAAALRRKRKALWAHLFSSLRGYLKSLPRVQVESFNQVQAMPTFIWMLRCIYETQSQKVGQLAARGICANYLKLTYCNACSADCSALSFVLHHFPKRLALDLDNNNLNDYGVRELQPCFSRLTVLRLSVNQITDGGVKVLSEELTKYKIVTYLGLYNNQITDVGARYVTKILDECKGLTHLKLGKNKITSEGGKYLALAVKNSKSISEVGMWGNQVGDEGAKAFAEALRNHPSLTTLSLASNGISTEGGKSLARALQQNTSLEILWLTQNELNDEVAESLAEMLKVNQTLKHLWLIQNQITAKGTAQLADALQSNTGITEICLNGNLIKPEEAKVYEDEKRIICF

[14] = molecular target: Nucleotide-binding oligomerization domain-containing protein 2 (Homo sapiens, UniProt Q9HC29); assay: PubChem AID 2334; assay type: functional
HEK293 [15] = assay: cells; settings: Homo sapiens
Estrogen receptor [16] = molecular target: T3, Estrogen receptor
[17] = molecular target: Scavenger receptor class B member 1 (Mus musculus, UniProt Q61009); assay: inhibitors of SR-BI mediated HDL lipid uptake, dose response, ldlA[mSR-BI] cells, fluorescence, cherry pick (AID 493194); assay type: functional, cell-based;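 further: cellular uptake of fluorescent DiI-labeled HDL measured as cell fluorescence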
[18] = molecular target: Voltage-gated N-type calcium channel alpha-1B subunit/Amyloid beta A4 precursor protein-binding family A member 1 (Homo sapiens, UniProt Q00975+Q02410); assay: disruptors of Mint-PDZ/N-type channel peptide interaction – biochemical, HTRF, set 2, SAR follow-up (AID 434980); assay type: functional

Chain of Scavenger receptor class B member 1 (Q61009 whole entry): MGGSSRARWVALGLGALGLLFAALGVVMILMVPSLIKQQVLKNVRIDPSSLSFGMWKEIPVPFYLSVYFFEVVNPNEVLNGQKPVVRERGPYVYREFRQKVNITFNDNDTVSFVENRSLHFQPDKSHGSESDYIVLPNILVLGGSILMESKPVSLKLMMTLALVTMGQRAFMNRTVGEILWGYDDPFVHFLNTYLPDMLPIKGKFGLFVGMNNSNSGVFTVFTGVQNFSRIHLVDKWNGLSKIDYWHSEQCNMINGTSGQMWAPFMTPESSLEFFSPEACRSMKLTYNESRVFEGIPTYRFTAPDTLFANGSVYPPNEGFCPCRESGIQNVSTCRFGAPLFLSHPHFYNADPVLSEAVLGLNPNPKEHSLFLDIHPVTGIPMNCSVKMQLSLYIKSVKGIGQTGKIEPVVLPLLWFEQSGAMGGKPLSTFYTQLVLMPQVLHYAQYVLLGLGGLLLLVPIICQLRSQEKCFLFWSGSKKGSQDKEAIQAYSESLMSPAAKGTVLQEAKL
Chain of X-box-binding protein 1 (P17861 whole entry): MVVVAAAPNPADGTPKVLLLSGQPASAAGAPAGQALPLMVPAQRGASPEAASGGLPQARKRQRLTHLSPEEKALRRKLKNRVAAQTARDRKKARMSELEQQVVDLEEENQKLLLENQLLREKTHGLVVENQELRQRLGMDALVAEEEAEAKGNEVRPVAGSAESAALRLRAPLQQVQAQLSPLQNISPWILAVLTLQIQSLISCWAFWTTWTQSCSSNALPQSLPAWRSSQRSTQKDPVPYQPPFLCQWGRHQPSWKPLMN
Chain of Nucleotide-binding oligomerization domain-containing protein 2 (Q9HC29 whole entry, the tested form may be a part): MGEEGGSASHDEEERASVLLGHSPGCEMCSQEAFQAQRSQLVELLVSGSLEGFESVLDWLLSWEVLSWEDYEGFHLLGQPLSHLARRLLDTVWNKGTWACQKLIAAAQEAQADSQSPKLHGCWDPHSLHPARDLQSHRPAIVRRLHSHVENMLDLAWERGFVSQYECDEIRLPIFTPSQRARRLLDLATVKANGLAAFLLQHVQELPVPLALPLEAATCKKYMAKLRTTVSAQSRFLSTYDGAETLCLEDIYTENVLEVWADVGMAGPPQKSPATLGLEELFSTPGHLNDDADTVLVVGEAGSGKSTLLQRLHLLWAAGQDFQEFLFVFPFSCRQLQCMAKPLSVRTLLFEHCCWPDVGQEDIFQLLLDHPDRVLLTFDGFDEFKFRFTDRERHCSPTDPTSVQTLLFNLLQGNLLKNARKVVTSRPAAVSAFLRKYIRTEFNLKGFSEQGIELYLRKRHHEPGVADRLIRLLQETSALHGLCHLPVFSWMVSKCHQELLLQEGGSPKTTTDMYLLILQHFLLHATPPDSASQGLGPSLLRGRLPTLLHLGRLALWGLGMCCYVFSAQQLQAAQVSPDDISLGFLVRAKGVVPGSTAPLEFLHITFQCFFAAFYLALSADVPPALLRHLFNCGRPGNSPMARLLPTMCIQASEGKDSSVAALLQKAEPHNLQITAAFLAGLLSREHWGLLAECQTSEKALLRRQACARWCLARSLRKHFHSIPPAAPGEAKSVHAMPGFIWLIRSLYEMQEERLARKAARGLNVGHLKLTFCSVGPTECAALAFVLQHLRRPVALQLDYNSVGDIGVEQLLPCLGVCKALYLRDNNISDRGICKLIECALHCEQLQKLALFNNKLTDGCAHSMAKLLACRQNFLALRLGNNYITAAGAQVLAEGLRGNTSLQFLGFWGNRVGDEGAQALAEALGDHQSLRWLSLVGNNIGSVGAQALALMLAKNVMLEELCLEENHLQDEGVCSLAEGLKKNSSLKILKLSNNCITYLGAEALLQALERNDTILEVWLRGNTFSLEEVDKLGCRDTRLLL
Chain of Luciferin 4-monooxygenase (P08659 whole entry): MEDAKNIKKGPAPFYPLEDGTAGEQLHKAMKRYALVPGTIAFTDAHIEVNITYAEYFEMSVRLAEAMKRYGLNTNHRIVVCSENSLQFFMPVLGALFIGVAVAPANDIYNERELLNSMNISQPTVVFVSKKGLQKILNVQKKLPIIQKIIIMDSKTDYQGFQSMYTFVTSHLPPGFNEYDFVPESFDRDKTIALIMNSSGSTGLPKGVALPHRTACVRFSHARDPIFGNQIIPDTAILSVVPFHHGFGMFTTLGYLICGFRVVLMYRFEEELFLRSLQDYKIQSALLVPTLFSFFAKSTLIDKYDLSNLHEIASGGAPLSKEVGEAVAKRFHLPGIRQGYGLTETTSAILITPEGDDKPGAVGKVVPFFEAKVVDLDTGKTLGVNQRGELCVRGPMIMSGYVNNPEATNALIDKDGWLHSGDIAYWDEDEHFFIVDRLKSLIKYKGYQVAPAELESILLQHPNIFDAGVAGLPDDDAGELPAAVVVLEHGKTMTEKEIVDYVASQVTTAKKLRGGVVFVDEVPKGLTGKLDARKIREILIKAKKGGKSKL
Chain of Neutrophil collagenase (P22894 whole entry): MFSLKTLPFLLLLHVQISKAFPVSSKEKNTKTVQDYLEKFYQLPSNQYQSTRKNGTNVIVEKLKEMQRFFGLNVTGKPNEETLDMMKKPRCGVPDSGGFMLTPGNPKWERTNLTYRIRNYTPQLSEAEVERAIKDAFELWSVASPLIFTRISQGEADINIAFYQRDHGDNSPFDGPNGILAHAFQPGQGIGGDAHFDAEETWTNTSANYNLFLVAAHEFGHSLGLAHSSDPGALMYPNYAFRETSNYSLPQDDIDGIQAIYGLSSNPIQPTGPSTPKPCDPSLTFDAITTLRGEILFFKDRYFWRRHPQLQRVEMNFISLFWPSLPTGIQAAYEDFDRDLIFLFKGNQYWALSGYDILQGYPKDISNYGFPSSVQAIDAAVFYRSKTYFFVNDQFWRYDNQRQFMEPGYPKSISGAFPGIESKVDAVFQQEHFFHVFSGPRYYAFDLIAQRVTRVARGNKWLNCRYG
Chain of Acyl-homoserine lactone acylase PvdQ (Q9I194 24-193 limits assumed): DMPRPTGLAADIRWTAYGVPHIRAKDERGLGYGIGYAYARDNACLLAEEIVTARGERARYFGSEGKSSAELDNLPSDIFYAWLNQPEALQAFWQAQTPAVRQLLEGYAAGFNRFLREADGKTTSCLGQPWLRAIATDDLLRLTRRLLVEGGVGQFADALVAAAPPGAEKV
Chain of Acyl-homoserine lactone acylase PvdQ (Q9I194 217-762 limits assumed): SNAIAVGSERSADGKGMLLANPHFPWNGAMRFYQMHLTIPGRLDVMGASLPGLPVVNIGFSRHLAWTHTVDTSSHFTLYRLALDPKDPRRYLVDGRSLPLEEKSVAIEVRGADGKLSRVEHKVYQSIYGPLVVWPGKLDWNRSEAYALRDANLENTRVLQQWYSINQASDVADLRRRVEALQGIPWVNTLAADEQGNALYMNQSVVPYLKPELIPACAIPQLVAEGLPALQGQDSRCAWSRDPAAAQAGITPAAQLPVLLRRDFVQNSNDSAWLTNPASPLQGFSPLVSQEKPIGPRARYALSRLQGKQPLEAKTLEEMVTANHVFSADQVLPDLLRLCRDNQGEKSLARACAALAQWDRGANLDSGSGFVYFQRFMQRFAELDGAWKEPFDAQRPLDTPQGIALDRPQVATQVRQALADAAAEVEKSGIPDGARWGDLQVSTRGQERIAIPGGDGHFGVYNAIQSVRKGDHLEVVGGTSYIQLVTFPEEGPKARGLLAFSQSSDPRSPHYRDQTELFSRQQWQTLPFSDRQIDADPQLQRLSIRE
Chain of Tumor necrosis factor (P01375 whole entry, the tested form may be a part): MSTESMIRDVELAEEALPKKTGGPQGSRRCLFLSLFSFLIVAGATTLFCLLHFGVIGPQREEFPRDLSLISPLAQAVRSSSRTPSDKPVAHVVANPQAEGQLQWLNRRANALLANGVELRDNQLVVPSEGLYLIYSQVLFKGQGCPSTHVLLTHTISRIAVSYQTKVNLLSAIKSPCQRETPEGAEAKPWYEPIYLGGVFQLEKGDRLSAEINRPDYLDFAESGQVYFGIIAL

In the case of COC(=O)C1=C(CN2CCCc3ccccc32)NC(=O)NC1c1ccc(F)cc1 (configuration not stated), the EC50 [1] is reported as 6.69 µM (inconclusive), the EC50 (HEK293 [2]) is reported as 9.82 µM (not active) and the EC50 [3] is reported as > 8 µM (not active). The EC50 [4] was 12.4 µM (active), the EC50 [5] was 8.88 µM (active) and the IC50 [6] was > 39.8 µM (not active). For the same molecule, the EC50 (HEK293 [7]) was > 8 µM (inactive), the IC50 [8] was > 80 µM (inactive) and the AC50 [9] was 2.16 µM (active).
For CCC(C)(C)NC(=O)C(c1cccn1C)N(C(=O)Cn1nnc2ccccc21)c1ccc(F)cc1 (configuration not stated), the “Absolute IC50 (XBP1)” value (X-box-binding protein 1) was 10 µM.
With Cc1ccc([S+]([O-])c2ccc(C)cc2)cc1 the AC50 [10] was 2.65 µM (active).
In the case of O=C(O)c1ccc(CSc2nc3c(c(=O)[nH]2)CCC3)cc1, the IC50 (Neutrophil collagenase) is reported as > 39.8 µM (inactive) and the IC50 (Collagenase 3) is reported as > 39.8 µM (inactive).
With Cc1ccc(Cn2c(NC(=O)c3ccco3)nc3ccccc32)cc1 the CC50 [11] was 10.1 µM (active), the EC50 (Estrogen receptor [12]) was 14.6 µM (active) and the IC50 (Tumor necrosis factor) was > 20 µM (inactive). The IC50 [13] was > 20 µM (inactive), the IC50 [14] was > 20 µM (inactive) and the IC50 (HEK293 [15]) was > 20 µM (inactive).
In the case of CCOC(=O)c1c(Nc2nc(C)c(C(=O)NC)s2)sc(C)c1C, the IC50 (Estrogen receptor [16]) is reported as 42.3 µM (not active) and the AC50 [17] is reported as 11.6 µM (active).
For CN(CCc1ccccc1)C(=O)c1cc(-c2ccco2)nc2ccccc12, the IC50 [18] was > 56.8 µM (inactive).

From ChEMBL document CHEMBL1201862, “PubChem BioAssay data set” (2004)
